Measurements as given in PMC8449129, “Single tracer-based protocol for broad-spectrum kinase profiling in live cells with NanoBRET” (STAR Protocols, 2021).

Legend:
Experiment in all cases: cell-based
Parameters in all cases: NanoBRET live-cell target engagement; % occupancy from displacement of tracer K10 on NanoLuc-kinase fusions, mean n=3
Details in all cases: HEK293, read-out: % inhibition
MAP3K21 = MAP3K21 (Homo sapiens, UniProt Q5TCX8)
Procedure: (§1) • 18. Prepare 10× test compounds in OptiMEM • a. Dilute the test compound to 1000× in DMSO (or the test compound solvent). […] Add 10μL per well of 10× test compound or 10μL of the DMSO control to the 96-well plates containing cells with 1× tracer. Mix on orbital shaker for 15 s at 900 rpm. • 20. Incubate the plate at 37°C + 5% CO2 incubator for 2hr. Allow plate to cool to RT for ∼15 min, then proceed to NanoBRET^TM Assay section below. • 21. Immediately before the BRET measurements, prepare 3× Complete NanoBRET^TM Nano-Glo® Substrate in OptiMEM without serum or phenol red. […] Mix gently by inverting 5–10 times in a conical tube. (The final concentration of Extracellular NanoLuc inhibitor in the 3× solution is 60 μM, for a working concentration of 20 μM.) • a. Note: 3× solutions should be used within 1.5 h after preparation. • 22. […] Incubate 2–3 min at RT. Following addition of NanoBRET^TM Nano-Glo® Substrate, measure donor emission (e.g., 450 nm) and acceptor emission (e.g., 610 nm or 630 nm) using a NanoBRET™-compatible luminometer. Fractional occupancy Quantitation • 2. Determine Fractional Occupancy with the following equation; % Occupancy = [1 – (X – Z)/( Y – Z)]∗100 • Where: • X = BRET in the presence of the test compound and tracer, • Y = BRET in the presence of the 100% BRET Control (Tracer + DMSO) • Z = BRET for the Zero BRET Control, e.g., • a. BRET from the NanoLuc Control Vector • b. BRET from Kinase/NanoLuc fusion + saturating dose of control test compound.

RIOK2 = RIOK2 (Homo sapiens, UniProt Q9BVS4)
Procedure: as §1

MAPK9 = MAPK9 (Homo sapiens, UniProt P45984)
Sequence of MAPK9 (P45984 whole entry): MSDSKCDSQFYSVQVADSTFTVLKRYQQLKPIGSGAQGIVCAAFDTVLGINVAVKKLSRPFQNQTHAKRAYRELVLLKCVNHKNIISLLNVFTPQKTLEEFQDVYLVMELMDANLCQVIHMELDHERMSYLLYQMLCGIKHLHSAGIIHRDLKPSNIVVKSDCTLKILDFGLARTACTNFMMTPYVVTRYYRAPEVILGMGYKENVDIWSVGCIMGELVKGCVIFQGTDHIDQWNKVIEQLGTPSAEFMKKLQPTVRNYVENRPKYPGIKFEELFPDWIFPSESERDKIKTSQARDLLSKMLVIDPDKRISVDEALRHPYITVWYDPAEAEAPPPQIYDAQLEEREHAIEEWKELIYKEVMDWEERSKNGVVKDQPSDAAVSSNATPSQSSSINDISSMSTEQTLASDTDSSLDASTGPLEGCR
Procedure: as §1

CDK20 = CDK20 (Homo sapiens, UniProt Q8IZL9)
Procedure: as §1

STK11 = STK11 (Homo sapiens, UniProt Q15831)
Sequence of STK11 (Q15831 whole entry): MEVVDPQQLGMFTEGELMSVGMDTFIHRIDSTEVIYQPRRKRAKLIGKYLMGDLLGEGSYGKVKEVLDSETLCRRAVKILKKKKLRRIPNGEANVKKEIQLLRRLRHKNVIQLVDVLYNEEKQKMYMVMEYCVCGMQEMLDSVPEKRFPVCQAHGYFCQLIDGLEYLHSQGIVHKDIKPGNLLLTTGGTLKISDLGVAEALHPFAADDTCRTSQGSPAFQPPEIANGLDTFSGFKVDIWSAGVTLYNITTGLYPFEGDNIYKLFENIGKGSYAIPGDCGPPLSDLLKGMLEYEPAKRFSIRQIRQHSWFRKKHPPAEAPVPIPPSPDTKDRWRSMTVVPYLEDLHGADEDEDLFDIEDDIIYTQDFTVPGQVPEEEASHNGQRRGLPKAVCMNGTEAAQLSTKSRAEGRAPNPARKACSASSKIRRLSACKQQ
Procedure: as §1

CDKL5 = CDKL5 (Homo sapiens, UniProt O76039)
Procedure: as §1

IGF1R = IGF1R (Homo sapiens, UniProt P08069)
Sequence of IGF1R (P08069 whole entry): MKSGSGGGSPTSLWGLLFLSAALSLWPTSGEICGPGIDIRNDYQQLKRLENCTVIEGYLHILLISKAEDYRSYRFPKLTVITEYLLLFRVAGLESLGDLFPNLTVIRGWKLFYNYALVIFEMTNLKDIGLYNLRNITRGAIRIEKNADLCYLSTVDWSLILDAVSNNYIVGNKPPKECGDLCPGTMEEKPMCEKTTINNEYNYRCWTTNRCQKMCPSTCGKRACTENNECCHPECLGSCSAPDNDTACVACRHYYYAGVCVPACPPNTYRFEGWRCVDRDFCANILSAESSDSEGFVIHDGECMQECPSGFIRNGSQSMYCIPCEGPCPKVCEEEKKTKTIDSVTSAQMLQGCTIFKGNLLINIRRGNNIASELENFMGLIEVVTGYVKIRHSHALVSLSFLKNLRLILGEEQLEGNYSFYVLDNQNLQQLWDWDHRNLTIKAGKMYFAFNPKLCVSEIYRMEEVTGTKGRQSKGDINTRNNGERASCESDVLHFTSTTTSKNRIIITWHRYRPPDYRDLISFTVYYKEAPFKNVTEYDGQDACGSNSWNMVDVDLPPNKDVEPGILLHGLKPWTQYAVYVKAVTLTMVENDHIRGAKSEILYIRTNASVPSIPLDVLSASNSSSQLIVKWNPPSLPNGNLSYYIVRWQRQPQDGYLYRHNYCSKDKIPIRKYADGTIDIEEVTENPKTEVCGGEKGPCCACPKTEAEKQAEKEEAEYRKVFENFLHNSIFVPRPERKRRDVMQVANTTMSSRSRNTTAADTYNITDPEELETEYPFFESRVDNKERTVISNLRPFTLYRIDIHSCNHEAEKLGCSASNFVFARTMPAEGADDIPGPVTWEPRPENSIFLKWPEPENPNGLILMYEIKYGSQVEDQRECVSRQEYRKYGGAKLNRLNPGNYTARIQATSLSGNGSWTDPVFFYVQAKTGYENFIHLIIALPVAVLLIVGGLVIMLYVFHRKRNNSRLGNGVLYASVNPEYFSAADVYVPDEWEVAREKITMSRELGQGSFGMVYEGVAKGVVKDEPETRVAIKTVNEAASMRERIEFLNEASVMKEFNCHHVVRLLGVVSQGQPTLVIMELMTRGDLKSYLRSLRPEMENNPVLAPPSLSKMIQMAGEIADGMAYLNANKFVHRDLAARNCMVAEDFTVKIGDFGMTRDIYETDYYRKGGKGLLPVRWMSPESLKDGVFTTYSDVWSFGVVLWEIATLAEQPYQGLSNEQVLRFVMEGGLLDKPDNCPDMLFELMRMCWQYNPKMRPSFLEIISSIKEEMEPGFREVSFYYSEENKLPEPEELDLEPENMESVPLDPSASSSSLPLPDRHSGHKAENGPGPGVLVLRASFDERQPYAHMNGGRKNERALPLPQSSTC
Procedure: as §1

SGK1 = SGK1 (Homo sapiens, UniProt O00141)
Sequence of SGK1 (O00141 whole entry): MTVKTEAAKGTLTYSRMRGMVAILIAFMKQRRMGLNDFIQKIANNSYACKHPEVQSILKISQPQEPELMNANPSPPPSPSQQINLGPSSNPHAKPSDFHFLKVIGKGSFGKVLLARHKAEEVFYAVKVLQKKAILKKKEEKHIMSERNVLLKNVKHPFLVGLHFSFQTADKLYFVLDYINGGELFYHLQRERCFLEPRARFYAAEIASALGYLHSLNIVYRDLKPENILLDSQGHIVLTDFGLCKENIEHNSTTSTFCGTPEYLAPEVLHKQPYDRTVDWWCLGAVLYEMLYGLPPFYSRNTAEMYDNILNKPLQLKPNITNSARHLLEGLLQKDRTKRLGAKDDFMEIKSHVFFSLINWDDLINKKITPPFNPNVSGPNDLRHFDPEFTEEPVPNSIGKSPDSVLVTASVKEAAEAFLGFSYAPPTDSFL
Procedure: as §1

JAK3 = JAK3 (Homo sapiens, UniProt P52333)
Procedure: as §1

CDK3 = CDK3 (Homo sapiens, UniProt Q00526)
Sequence of CDK3 (Q00526 whole entry): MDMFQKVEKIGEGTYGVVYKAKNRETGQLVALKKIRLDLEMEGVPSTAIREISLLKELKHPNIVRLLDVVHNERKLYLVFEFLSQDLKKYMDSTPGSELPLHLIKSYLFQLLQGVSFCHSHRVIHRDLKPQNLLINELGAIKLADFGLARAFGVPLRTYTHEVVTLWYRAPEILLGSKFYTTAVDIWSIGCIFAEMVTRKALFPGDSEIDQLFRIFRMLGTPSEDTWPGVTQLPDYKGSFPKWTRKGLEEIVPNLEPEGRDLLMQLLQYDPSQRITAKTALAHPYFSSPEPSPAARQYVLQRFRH
Procedure: as §1

MAP4K1 = MAP4K1 (Homo sapiens, UniProt Q92918)
Procedure: as §1

MAPK6 = MAPK6 (Homo sapiens, UniProt Q16659)
Sequence of MAPK6 (Q16659 whole entry): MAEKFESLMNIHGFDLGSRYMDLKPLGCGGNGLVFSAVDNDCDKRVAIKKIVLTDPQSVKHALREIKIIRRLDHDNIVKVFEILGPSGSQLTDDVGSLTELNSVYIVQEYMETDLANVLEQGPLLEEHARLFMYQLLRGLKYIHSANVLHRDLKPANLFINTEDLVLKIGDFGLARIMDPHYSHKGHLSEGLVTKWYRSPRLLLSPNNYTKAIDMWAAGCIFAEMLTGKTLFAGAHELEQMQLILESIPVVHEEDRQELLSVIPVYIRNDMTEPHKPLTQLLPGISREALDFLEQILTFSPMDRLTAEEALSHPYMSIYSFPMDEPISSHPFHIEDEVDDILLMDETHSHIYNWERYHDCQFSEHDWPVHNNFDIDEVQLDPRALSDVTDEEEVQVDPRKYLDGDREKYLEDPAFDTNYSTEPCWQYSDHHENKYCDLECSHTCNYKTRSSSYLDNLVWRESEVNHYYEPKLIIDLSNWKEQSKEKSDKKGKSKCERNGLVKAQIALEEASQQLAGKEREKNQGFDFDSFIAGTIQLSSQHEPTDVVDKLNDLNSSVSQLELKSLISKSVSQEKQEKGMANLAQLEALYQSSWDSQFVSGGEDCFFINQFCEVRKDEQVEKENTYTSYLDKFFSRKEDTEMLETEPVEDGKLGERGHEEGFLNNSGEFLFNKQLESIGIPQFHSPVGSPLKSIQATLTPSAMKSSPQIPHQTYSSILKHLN
Procedure: as §1

CDK5 = CDK5 (Homo sapiens, UniProt Q00535)
Procedure: as §1

MYLK3 = MYLK3 (Homo sapiens, UniProt Q32MK0)
Sequence of MYLK3 (Q32MK0 whole entry): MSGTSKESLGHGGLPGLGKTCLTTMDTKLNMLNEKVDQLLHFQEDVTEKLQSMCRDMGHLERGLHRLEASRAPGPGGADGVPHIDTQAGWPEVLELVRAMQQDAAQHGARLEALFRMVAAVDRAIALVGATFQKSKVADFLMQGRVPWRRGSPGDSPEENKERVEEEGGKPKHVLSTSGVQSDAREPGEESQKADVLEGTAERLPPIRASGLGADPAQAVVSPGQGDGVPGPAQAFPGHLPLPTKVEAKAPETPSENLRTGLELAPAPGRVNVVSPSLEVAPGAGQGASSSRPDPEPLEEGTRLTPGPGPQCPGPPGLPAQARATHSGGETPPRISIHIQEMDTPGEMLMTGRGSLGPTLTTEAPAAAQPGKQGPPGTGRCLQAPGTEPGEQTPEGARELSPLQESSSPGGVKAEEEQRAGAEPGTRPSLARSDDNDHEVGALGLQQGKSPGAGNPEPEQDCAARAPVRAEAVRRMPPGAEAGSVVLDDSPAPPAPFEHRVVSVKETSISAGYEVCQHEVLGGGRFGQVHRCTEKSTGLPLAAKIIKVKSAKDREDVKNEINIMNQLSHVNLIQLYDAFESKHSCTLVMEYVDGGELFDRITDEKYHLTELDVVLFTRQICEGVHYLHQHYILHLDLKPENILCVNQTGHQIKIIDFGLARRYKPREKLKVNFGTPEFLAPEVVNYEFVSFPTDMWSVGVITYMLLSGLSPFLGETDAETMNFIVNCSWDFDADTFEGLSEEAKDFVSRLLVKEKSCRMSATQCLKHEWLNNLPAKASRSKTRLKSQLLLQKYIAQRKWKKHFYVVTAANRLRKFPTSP
Procedure: as §1

PLK2 = PLK2 (Homo sapiens, UniProt Q9NYY3)
Procedure: as §1

CAMK1 = CAMK1 (Homo sapiens, UniProt Q14012)
Procedure: as §1

PRKCE = PRKCE (Homo sapiens, UniProt Q02156)
Procedure: as §1

NLK = NLK (Homo sapiens, UniProt Q9UBE8)
Sequence of NLK (Q9UBE8 whole entry): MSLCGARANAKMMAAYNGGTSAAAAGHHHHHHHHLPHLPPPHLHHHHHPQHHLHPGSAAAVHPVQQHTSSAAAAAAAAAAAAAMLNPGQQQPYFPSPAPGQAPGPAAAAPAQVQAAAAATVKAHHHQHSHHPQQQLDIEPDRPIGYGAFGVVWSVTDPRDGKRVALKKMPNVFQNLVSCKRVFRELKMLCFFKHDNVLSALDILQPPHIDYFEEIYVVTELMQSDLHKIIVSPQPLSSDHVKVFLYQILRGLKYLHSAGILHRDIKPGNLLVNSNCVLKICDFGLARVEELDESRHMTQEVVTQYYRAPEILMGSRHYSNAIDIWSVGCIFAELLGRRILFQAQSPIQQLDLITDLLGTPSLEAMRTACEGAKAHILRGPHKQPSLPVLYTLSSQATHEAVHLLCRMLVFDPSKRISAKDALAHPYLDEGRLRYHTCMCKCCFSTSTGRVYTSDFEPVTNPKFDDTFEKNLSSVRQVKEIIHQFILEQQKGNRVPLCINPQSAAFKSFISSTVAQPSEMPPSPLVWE
Procedure: as §1

SMILES: C[C@@H](Oc1cc(-c2cnn(C3CCNCC3)c2)cnc1N)c1c(Cl)ccc(F)c1Cl [crizotinib]
- inhibition at 1 µM (MAP3K21): 3%
- inhibition at 1 µM (RIOK2): 9%
- inhibition at 1 µM (MAPK9): -11%
- inhibition at 1 µM (CDK20): -11%
- inhibition at 1 µM (STK11): -1%
- inhibition at 1 µM (CDKL5): 4%
- inhibition at 1 µM (IGF1R): 18%
- inhibition at 1 µM (SGK1): -1%
- inhibition at 1 µM (JAK3): 2%
- inhibition at 1 µM (CDK3): 6%
- inhibition at 1 µM (MAP4K1): 14%
- inhibition at 1 µM (MAPK6): 2%
- inhibition at 1 µM (CDK5): 1%
- inhibition at 1 µM (MYLK3): -8%
- inhibition at 1 µM (PLK2): 4%
- inhibition at 1 µM (CAMK1): 7%
- inhibition at 1 µM (PRKCE): -6%
- inhibition at 1 µM (NLK): -1%
